In PubChem BioAssay AID256 (DTP/NCI, 2004) one finds T/C data, which are given here for 17 molecules.

For this assay, the system named is CD2F1 mice, L1210 leukemia ip, survival T/C. Put plainly: NCI In Vivo Anticancer Drug Screen. Data for tumor model L1210 Leukemia (intraperitoneal) in CD2F1 (CDF1) mice. The conditions noted are these: higher = longer survival. The essentials:
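Ratio T/C, where T is the treated-group value and C the vehicle-dosed control value, from mice implanted with a transplantable tumor.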

Where [1] appears, read: endpoint: mean survival time, dose: 100.0 mg/kg/injection, schedule: Q01DX001 (ip), vehicle: saline with Tween-80.
Setting [2] is: endpoint: mean survival time, dose: 200.0 mg/kg/injection, schedule: Q01DX001 (ip), vehicle: saline with Tween-80.
[3] abbreviates: endpoint: mean survival time, dose: 400.0 mg/kg/injection, schedule: Q01DX001 (ip), vehicle: saline with Tween-80.
Setting [4] is: endpoint: mean survival time, dose: 100.0 mg/kg/injection, schedule: Q01DX009 (ip), vehicle: Klucel (hydroxypropylcellulose) (HPC).
Where [5] appears, read: endpoint: mean survival time, dose: 200.0 mg/kg/injection, schedule: Q01DX009 (ip), vehicle: Klucel (hydroxypropylcellulose) (HPC).
The mark [6] stands for this setting: endpoint: mean survival time, dose: 100.0 mg/kg/injection, schedule: Q04DX003 (ip), vehicle: saline with Tween-80.
Where [7] appears, read: endpoint: mean survival time, dose: 200.0 mg/kg/injection, schedule: Q04DX003 (ip), vehicle: saline with Tween-80.
Where [8] appears, read: endpoint: mean survival time, dose: 400.0 mg/kg/injection, schedule: Q04DX003 (ip), vehicle: saline with Tween-80.
[9] abbreviates: endpoint: mean survival time, dose: 100.0 mg/kg/injection, schedule: Q01DX001 (ip), vehicle: saline.
Where [10] appears, read: endpoint: mean survival time, dose: 200.0 mg/kg/injection, schedule: Q01DX001 (ip), vehicle: saline.
The mark [11] stands for this setting: endpoint: mean survival time, dose: 400.0 mg/kg/injection, schedule: Q01DX001 (ip), vehicle: saline.

Toxic doses and inconclusive results are not listed.

`CC(C)(C)OC1C2C=CC1C=C2` (stereo not given): the T/C reads like this: under setting [1], 100 % of control; under setting [2], 91 % of control; under setting [3], 88 % of control.

As to `Cc1c(Cl)cccc1NC(=O)Nc1ccc(F)c([N+](=O)[O-])c1`, the T/C by setting is: (endpoint: mean survival time, dose: 50.0 mg/kg/injection, schedule: Q01DX009 (ip), vehicle: Klucel (hydroxypropylcellulose) (HPC)) 91 % of control; under setting [4], 102 % of control; under setting [5], 98 % of control.

As for `CC(C)(C)CC(C)(C)c1ccc(OCCOc2ccccc2NC(=O)CC(=O)c2cccc([N+](=O)[O-])c2)cc1`, the T/C runs as follows: under setting [4], 98 % of control; under setting [6], 97 % of control; under setting [5], 93 % of control; under setting [7], 101 % of control; (endpoint: mean survival time, dose: 400.0 mg/kg/injection, schedule: Q01DX009 (ip), vehicle: Klucel (hydroxypropylcellulose) (HPC)) 90 % of control; under setting [8], 92 % of control.

For `[N-]=[N+]=c1c(=O)c2ccccc2c1=O`, the T/C is, setting by setting: under setting [1], 96 % of control; under setting [2], 94 % of control; under setting [3], 104 % of control.

Consider `CC[C@@H](O)C[C@H]1CCC[C@@]2(C[C@@H]3OC(=O)/C=C/[C@@](C)(O)[C@@H](O)[C@H](C)[C@@H](O)[C@H](OC4CCC(N(C)C)C(C)O4)[C@@H](O)[C@](C)(O)CCCCC/C=C/[C@@H]4CC(C)(C)O[C@@]4(O)C[C@H](O2)[C@H]3C)O1` (stereo not given in full), for which the T/C (endpoint: mean survival time, dose: 0.25 mg/kg/injection, schedule: Q01DX009 (ip), vehicle: saline) was 109 % of control.

For `O=C(O)c1cc(Cl)[nH]c(=O)c1`, the T/C is 91 % of control under setting [6], 91 % of control under setting [7] and 91 % of control under setting [8].

In the case of `Oc1ccc(C(O)(c2ccccc2)c2ccc(O)c3ccccc23)c2ccccc12`, the T/C is, setting by setting: under setting [6], 102 % of control; under setting [7], 96 % of control; under setting [8], 103 % of control.

With `Cc1cc(C)c2[nH]c(=O)c(C)c(C)c2c1`, the T/C under setting [9] was 96 % of control, the T/C under setting [10] is 96 % of control and the T/C under setting [11] is 93 % of control.

Turning to `N=C1c2ccccc2-c2ccccc21`, the T/C reads like this: (endpoint: mean survival time, dose: 50.0 mg/kg/injection, schedule: Q01DX009 (ip), vehicle: saline with Tween-80) 101 % of control; (endpoint: mean survival time, dose: 100.0 mg/kg/injection, schedule: Q01DX009 (ip), vehicle: saline with Tween-80) 96 % of control.

Turning to `CCC(=O)OCC1OC(n2ccc(O)cc2=O)C(O)C1O` (stereo not given), the T/C runs as follows: (endpoint: median survival time, dose: 44.0 mg/kg/injection, schedule: Q01DX009 (ip), vehicle: saline + alcohol) 178 % of control; (endpoint: median survival time, dose: 67.0 mg/kg/injection, schedule: Q01DX009 (ip), vehicle: saline + alcohol) 174 % of control; (endpoint: median survival time, dose: 100.0 mg/kg/injection, schedule: Q01DX009 (ip), vehicle: saline + alcohol) 174 % of control; (endpoint: median survival time, dose: 150.0 mg/kg/injection, schedule: Q01DX009 (ip), vehicle: saline + alcohol) 153 % of control.

Take `COC(=O)CC(NC(=O)C(F)(F)F)C(=O)OC` (stereo not given): the T/C by setting is: under setting [9], 108 % of control; (endpoint: mean survival time, dose: 100.0 mg/kg/injection, schedule: Q01DX009 (ip), vehicle: saline) 94 % of control; under setting [6], 97 % of control; under setting [10], 104 % of control; (endpoint: mean survival time, dose: 200.0 mg/kg/injection, schedule: Q01DX009 (ip), vehicle: saline) 94 % of control; under setting [7], 97 % of control. Also, the T/C reads like this: under setting [11], 98 % of control; (endpoint: mean survival time, dose: 400.0 mg/kg/injection, schedule: Q01DX009 (ip), vehicle: saline) 100 % of control; under setting [8], 103 % of control.

On to `CC1CCC2NCCCC2C1` (stereo not given), for which the T/C is 98 % of control (endpoint: mean survival time, dose: 5.0 mg/kg/injection, schedule: Q04DX002 (ip), vehicle: saline); 95 % of control (endpoint: mean survival time, dose: 10.0 mg/kg/injection, schedule: Q04DX002 (ip), vehicle: saline); 98 % of control (endpoint: mean survival time, dose: 20.0 mg/kg/injection, schedule: Q04DX002 (ip), vehicle: saline).

`COC(=O)CCc1nc2ccccc2c(=O)[nH]1`: the T/C by setting is: (endpoint: mean survival time, dose: 100.0 mg/kg/injection, schedule: Q04DX003 (ip), vehicle: Klucel (hydroxypropylcellulose) (HPC)) 102 % of control; (endpoint: mean survival time, dose: 200.0 mg/kg/injection, schedule: Q04DX003 (ip), vehicle: Klucel (hydroxypropylcellulose) (HPC)) 109 % of control; (endpoint: mean survival time, dose: 400.0 mg/kg/injection, schedule: Q04DX003 (ip), vehicle: Klucel (hydroxypropylcellulose) (HPC)) 102 % of control.

For the molecule `CC1=CCC(c2ccccc2)NC(=O)C1` (stereo not given), the T/C by setting is: (endpoint: mean survival time, dose: 100.0 mg/kg/injection, schedule: Q04DX002 (ip), vehicle: saline with Tween-80) 96 % of control; (endpoint: mean survival time, dose: 200.0 mg/kg/injection, schedule: Q04DX002 (ip), vehicle: saline with Tween-80) 104 % of control; (endpoint: mean survival time, dose: 400.0 mg/kg/injection, schedule: Q04DX002 (ip), vehicle: saline with Tween-80) 104 % of control.

For the molecule `S=C1NC(c2ccccc2)NC(c2ccccc2)S1` (stereo not given), the T/C was 86 % of control (endpoint: mean survival time, dose: 12.0 mg/kg/injection, schedule: Q04DX003 (ip), vehicle: other); 97 % of control (endpoint: mean survival time, dose: 25.0 mg/kg/injection, schedule: Q04DX003 (ip), vehicle: other); 90 % of control (endpoint: mean survival time, dose: 50.0 mg/kg/injection, schedule: Q04DX003 (ip), vehicle: other).

With `O=C(OC(=O)C(F)(F)C(F)(F)F)C(F)(F)C(F)(F)F`, the T/C (endpoint: mean survival time, dose: 100.0 mg/kg/injection, schedule: Q04DX002 (ip), vehicle: saline) is 92 % of control; the T/C (endpoint: mean survival time, dose: 200.0 mg/kg/injection, schedule: Q04DX002 (ip), vehicle: saline) was 103 % of control; the T/C (endpoint: mean survival time, dose: 400.0 mg/kg/injection, schedule: Q04DX002 (ip), vehicle: saline) is 100 % of control.

With `CCCCNC(=S)NNC(=O)Cn1cnc2c1c(=O)n(C)c(=O)n2C`, the T/C is, setting by setting: (endpoint: mean survival time, dose: 12.5 mg/kg/injection, schedule: Q01DX005 (ip), vehicle: distilled water + Tween-80) 101 % of control; (endpoint: mean survival time, dose: 25.0 mg/kg/injection, schedule: Q01DX005 (ip), vehicle: distilled water + Tween-80) 101 % of control; (endpoint: mean survival time, dose: 50.0 mg/kg/injection, schedule: Q01DX005 (ip), vehicle: distilled water + Tween-80) 97 % of control; (endpoint: mean survival time, dose: 100.0 mg/kg/injection, schedule: Q01DX005 (ip), vehicle: distilled water + Tween-80) 97 % of control; (endpoint: mean survival time, dose: 200.0 mg/kg/injection, schedule: Q01DX005 (ip), vehicle: distilled water + Tween-80) 101 % of control.
